Consider 13 compounds from ChEMBL document CHEMBL6092180 (Eur J Med Chem, 2024).

Molecules are shown by their SMILES. ≈ marks a conversion by molar mass, not a printed value.

Holding throughout (type): functional
One test deals with Candida parapsilosis. The test is described as follows: Antifungal activity against Candida parapsilosis GIM 2.190 assessed as inhibition of fungal growth by CLSI M27-A3 guidelines based method. Conditions: Lodderomyces parapsilosis.
The test system of a further test is Candida tropicalis. The test is described as follows: Antifungal activity against Candida tropicalis GIM 2.183 assessed as inhibition of fungal growth by CLSI M27-A3 guidelines based method.
The subject of the next test is Nakaseomyces glabratus. The test is described as follows: Antifungal activity against Candida glabrata assessed as inhibition of fungal growth by CLSI M27-A3 guidelines based method.
The next test deals with Pichia kudriavzevii. Nature of the test: Antifungal activity against Candida krusei GIM 2.1 assessed as inhibition of fungal growth by CLSI M27-A3 guidelines based method.
Test [1] deals with Candida albicans. The test is described as follows: Antifungal activity against Candida albicans SC5314 assessed as inhibition of fungal growth by CLSI M27-A3 guidelines based method.
The subject of another test is Cryptococcus neoformans. Nature of the test: Antifungal activity against Cryptococcus neoformans CGMCC 2.3161 assessed as inhibition of fungal growth by CLSI M27-A3 guidelines based method.
The test system of test [2] is Candida albicans. Nature of the test: Antifungal activity against Candida albicans GIM 2.194 assessed as inhibition of fungal growth by CLSI M27-A3 guidelines based method.

In the case of `CC(=O)c1ccc(C#Cc2ccc(CN(C)CC(O)(Cn3cncn3)c3ccc(F)cc3F)cc2)cc1` (stereo unspecified), the MIC80 was found to be 0.006 µg/mL (≈ 0.012 µM) in the test on Candida parapsilosis; 0.006 µg/mL (≈ 0.012 µM) in the test with Candida tropicalis; 0.03 µg/mL (≈ 0.0599 µM) in the test on Nakaseomyces glabratus; 0.03 µg/mL (≈ 0.0599 µM) in the test on Pichia kudriavzevii; 0.006 µg/mL (≈ 0.012 µM) in the test on Candida albicans [1]; 0.006 µg/mL (≈ 0.012 µM) with Cryptococcus neoformans. Moreover, the MIC80 in the test on Candida albicans [2] was 0.006 µg/mL (≈ 0.012 µM).
Consider `CN(Cc1ccc(C#Cc2ccc([N+](=O)[O-])cc2)cc1)CC(O)(Cn1cncn1)c1ccc(F)cc1F` (stereo unspecified), for which the MIC80 amounted to 0.006 µg/mL (≈ 0.0119 µM) in the test with Candida parapsilosis; 0.006 µg/mL (≈ 0.0119 µM) in the test on Candida tropicalis; 0.03 µg/mL (≈ 0.0596 µM) in the test on Nakaseomyces glabratus; 0.03 µg/mL (≈ 0.0596 µM) with Pichia kudriavzevii; 0.006 µg/mL (≈ 0.0119 µM) with Candida albicans [1]; 0.013 µg/mL (≈ 0.0258 µM) in the test on Cryptococcus neoformans. In addition, the MIC80 with Candida albicans [2] worked out at 0.006 µg/mL (≈ 0.0119 µM).
Consider `CN(Cc1ccc(C#Cc2ccc(Cl)cc2)cc1)CC(O)(Cn1cncn1)c1ccc(F)cc1F` (stereo unspecified), for which the MIC80 is 0.006 µg/mL (≈ 0.0122 µM) in the test on Candida parapsilosis; 0.013 µg/mL (≈ 0.0264 µM) in the test with Candida tropicalis; 0.05 µg/mL (≈ 0.101 µM) in the test with Nakaseomyces glabratus; 0.03 µg/mL (≈ 0.0609 µM) in the test with Pichia kudriavzevii; 0.006 µg/mL (≈ 0.0122 µM) with Candida albicans [1]; 0.013 µg/mL (≈ 0.0264 µM) in the test on Cryptococcus neoformans. Moreover, in the test on Candida albicans [2], the MIC80 is 0.013 µg/mL (≈ 0.0264 µM).
Regarding `CN(Cc1ccc(C#Cc2cccc(F)c2)cc1)CC(O)(Cn1cncn1)c1ccc(F)cc1F` (stereo unspecified), the MIC80 was 0.006 µg/mL (≈ 0.0126 µM) in the test with Candida parapsilosis; 0.006 µg/mL (≈ 0.0126 µM) in the test on Candida tropicalis; 0.05 µg/mL (≈ 0.105 µM) in the test with Nakaseomyces glabratus; 0.01 µg/mL (≈ 0.021 µM) in the test on Pichia kudriavzevii; 0.006 µg/mL (≈ 0.0126 µM) in the test with Candida albicans [1]; 0.006 µg/mL (≈ 0.0126 µM) with Cryptococcus neoformans. The MIC80 in the test on Candida albicans [2] was found to be 0.013 µg/mL (≈ 0.0273 µM).
For `CN(Cc1ccc(C#Cc2ccc(Cl)cc2F)cc1)CC(O)(Cn1cncn1)c1ccc(F)cc1F` (stereo unspecified), the MIC80 in the test on Candida parapsilosis came out at 0.006 µg/mL (≈ 0.0117 µM); with Candida tropicalis it was 0.006 µg/mL (≈ 0.0117 µM); in the test with Nakaseomyces glabratus it was 0.03 µg/mL (≈ 0.0587 µM); in the test on Pichia kudriavzevii it was 0.01 µg/mL (≈ 0.0196 µM); with Candida albicans [1] it was 0.006 µg/mL (≈ 0.0117 µM); in the test with Cryptococcus neoformans, 0.025 µg/mL (≈ 0.0489 µM). Also, the MIC80 in the test with Candida albicans [2] came to 0.006 µg/mL (≈ 0.0117 µM).
For `CN(Cc1ccc(C#Cc2cncnc2)cc1)CC(O)(Cn1cncn1)c1ccc(F)cc1F` (stereo unspecified), the MIC80 in the test with Candida parapsilosis worked out at 0.025 µg/mL (≈ 0.0543 µM); in the test on Candida tropicalis, 0.025 µg/mL (≈ 0.0543 µM); with Nakaseomyces glabratus it was 3.2 µg/mL (≈ 6.95 µM); with Pichia kudriavzevii, 0.8 µg/mL (≈ 1.74 µM); in the test with Candida albicans [1], 0.025 µg/mL (≈ 0.0543 µM); in the test with Cryptococcus neoformans it was 0.4 µg/mL (≈ 0.869 µM). For the same compound, the MIC80 with Candida albicans [2] is 0.05 µg/mL (≈ 0.109 µM).
As to `CN(Cc1ccc(C#Cc2ccccc2I)cc1)CC(O)(Cn1cncn1)c1ccc(F)cc1F` (stereo unspecified), the MIC80 is 0.006 µg/mL (≈ 0.0103 µM) with Candida parapsilosis; 0.006 µg/mL (≈ 0.0103 µM) in the test with Candida tropicalis; 1.6 µg/mL (≈ 2.74 µM) in the test on Nakaseomyces glabratus; 0.8 µg/mL (≈ 1.37 µM) in the test on Pichia kudriavzevii; 0.013 µg/mL (≈ 0.0222 µM) in the test with Candida albicans [1]; 0.025 µg/mL (≈ 0.0428 µM) with Cryptococcus neoformans. In addition, the MIC80 in the test with Candida albicans [2] was 0.006 µg/mL (≈ 0.0103 µM).
As for `CC(C)c1ccc(C#Cc2ccc(CN(C)CC(O)(Cn3cncn3)c3ccc(F)cc3F)cc2)cc1` (stereo unspecified), the MIC80 in the test with Candida parapsilosis came to 0.05 µg/mL (≈ 0.0999 µM); in the test with Candida tropicalis it was 0.013 µg/mL (≈ 0.026 µM); with Nakaseomyces glabratus it was 0.1 µg/mL (≈ 0.2 µM); in the test on Pichia kudriavzevii it was 0.2 µg/mL (≈ 0.4 µM); with Candida albicans [1], 0.013 µg/mL (≈ 0.026 µM); with Cryptococcus neoformans, 0.025 µg/mL (≈ 0.0499 µM). Besides, the MIC80 with Candida albicans [2] amounted to 0.025 µg/mL (≈ 0.0499 µM).
On to `CN(Cc1ccc(C#Cc2cccc(I)c2)cc1)CC(O)(Cn1cncn1)c1ccc(F)cc1F` (stereo unspecified), for which the MIC80 worked out at 0.025 µg/mL (≈ 0.0428 µM) in the test with Candida parapsilosis; 0.025 µg/mL (≈ 0.0428 µM) in the test on Candida tropicalis; 3.2 µg/mL (≈ 5.48 µM) in the test on Nakaseomyces glabratus; 3.2 µg/mL (≈ 5.48 µM) in the test on Pichia kudriavzevii; 0.05 µg/mL (≈ 0.0856 µM) in the test on Candida albicans [1]; 0.025 µg/mL (≈ 0.0428 µM) in the test on Cryptococcus neoformans. The MIC80 with Candida albicans [2] worked out at 0.05 µg/mL (≈ 0.0856 µM).
As to `CN(Cc1ccc(C#Cc2cc(F)c(F)cc2F)cc1)CC(O)(Cn1cncn1)c1ccc(F)cc1F` (stereo unspecified), the MIC80 in the test on Candida parapsilosis worked out at 0.006 µg/mL (≈ 0.0117 µM); in the test with Candida tropicalis it was 0.006 µg/mL (≈ 0.0117 µM); in the test with Nakaseomyces glabratus, 0.01 µg/mL (≈ 0.0195 µM); in the test with Pichia kudriavzevii it was 0.03 µg/mL (≈ 0.0585 µM); in the test on Candida albicans [1], 0.006 µg/mL (≈ 0.0117 µM); with Cryptococcus neoformans it was 0.013 µg/mL (≈ 0.0254 µM). Also, the MIC80 in the test on Candida albicans [2] was 0.006 µg/mL (≈ 0.0117 µM).
For the compound `CN(Cc1ccc(C#Cc2cccc(Cl)c2)cc1)CC(O)(Cn1cncn1)c1ccc(F)cc1F` (stereo unspecified), the MIC80 amounted to 0.006 µg/mL (≈ 0.0122 µM) in the test with Candida parapsilosis; 0.013 µg/mL (≈ 0.0264 µM) in the test with Candida tropicalis; 0.2 µg/mL (≈ 0.406 µM) in the test with Nakaseomyces glabratus; 0.01 µg/mL (≈ 0.0203 µM) in the test on Pichia kudriavzevii; 0.013 µg/mL (≈ 0.0264 µM) in the test with Candida albicans [1]; 0.013 µg/mL (≈ 0.0264 µM) in the test with Cryptococcus neoformans. Moreover, the MIC80 in the test with Candida albicans [2] was determined as 0.006 µg/mL (≈ 0.0122 µM).
With `CN(Cc1ccc(C#Cc2ccc(O)cc2)cc1)CC(O)(Cn1cncn1)c1ccc(F)cc1F` (stereo unspecified), the MIC80 in the test on Candida parapsilosis was determined as 0.025 µg/mL (≈ 0.0527 µM); with Candida tropicalis, 0.025 µg/mL (≈ 0.0527 µM); in the test on Nakaseomyces glabratus it was 3.2 µg/mL (≈ 6.74 µM); in the test on Pichia kudriavzevii, 3.2 µg/mL (≈ 6.74 µM); in the test on Candida albicans [1], 0.013 µg/mL (≈ 0.0274 µM); with Cryptococcus neoformans, 0.2 µg/mL (≈ 0.421 µM). For the same compound, in the test with Candida albicans [2], the MIC80 is 0.025 µg/mL (≈ 0.0527 µM).
On to `CN(Cc1ccc(C#Cc2ccc(Br)cc2)cc1)CC(O)(Cn1cncn1)c1ccc(F)cc1F` (stereo unspecified), for which the MIC80 in the test with Candida parapsilosis stood at 0.006 µg/mL (≈ 0.0112 µM); with Candida tropicalis, 0.025 µg/mL (≈ 0.0465 µM); in the test on Nakaseomyces glabratus, 0.03 µg/mL (≈ 0.0558 µM); in the test with Pichia kudriavzevii, 0.01 µg/mL (≈ 0.0186 µM); in the test with Candida albicans [1], 0.013 µg/mL (≈ 0.0242 µM); with Cryptococcus neoformans, 0.013 µg/mL (≈ 0.0242 µM). Further, in the test with Candida albicans [2], the MIC80 was 0.013 µg/mL (≈ 0.0242 µM).
